This note sets out measurements from US6855710B2, “Substituted indolines with an inhibitory effect on various kinases and complexes of CDKs” (Boehringer Ingelheim Pharma KG, priority 1998, dated 2005).

A word on the melting point: it is the temperature of the solid-liquid transition.

With `COc1ccc(/C(Nc2ccc(CN(C)C)cc2)=C2/C(=O)Nc3ccc([N+](=O)[O-])cc32)cc1` [Example 216, (Z)-3-[1-(4-dimethylaminomethyl-phenylamino)-1-(4-methoxyphenyl)-methylidene]-5-nitro-2-indolinone], the melting point is 259 to 262 °C.
Compound `CC(=O)NCc1ccc(/C(Nc2cccc(N(CC(N)=O)S(C)(=O)=O)c2)=C2/C(=O)Nc3ccccc32)cc1` [Example 417, (Z)-3-{1-[3-(N-aminocarbonylmethyl-N-methylsulphonyl-amino)-phenylamino]-1-(4-acetylaminomethyl-phenyl)-methylidene}-2-indolinone] showed a melting point of 215 °C.
To `CN(C)C(=O)C1CCN(CCc2ccc(N/C(=C3\C(=O)Nc4ccc([N+](=O)[O-])cc43)c3ccccc3)cc2)CC1` [Example 264, (Z)-3-{1-[4-(2-(4-dimethylaminocarbonyl-piperidino)-ethyl)-phenylamino]-1-phenyl-methylidene}-5-nitro-2-indolinone] belongs 288 °C (dec.).
Turning to `CN(C(=O)CN)c1ccc(N/C(=C2\C(=O)Nc3ccc([N+](=O)[O-])cc32)c2ccccc2)cc1` [Example 139, (Z)-3-{1-[4-(N-aminomethylcarbonyl-N-methyl-amino)-phenyl-amino]-1-phenyl-methylidene}-5-nitro-2-indolinone], the melting point fell in the range of 255 to 256 °C.
To `CN(c1cccc(N/C(=C2\C(=O)Nc3ccccc32)c2ccccc2)c1)S(C)(=O)=O` [Example 184, (Z)-3-{1-[3-(N-methyl-N-methylsulphonyl-amino)-phenylamino]-1-phenyl-methylidene}-2-indolinone] belongs 261 °C.
To `CC(=O)NCc1ccc(/C(Nc2cccc(N(CC(=O)N(C)C)S(C)(=O)=O)c2)=C2/C(=O)Nc3ccccc32)cc1` [Example 421, (Z)-3-{1-[3-(N-dimethylaminocarbonylmethyl-N-methylsulphonyl-amino)-phenylamino]-1-(4-acetylaminomethyl-phenyl)-methylidene}-2-indolinone] belongs 194 °C.
`CN(C)Cc1cccc(N/C(=C2\C(=O)Nc3ccc([N+](=O)[O-])cc32)c2ccccc2)c1` [Example 107, (Z)-3-[1-(3-dimethylaminomethyl-phenylamino)-1-phenyl-methylidene]-5-nitro-2-indolinone] had a melting point of 214 to 217 °C.
To `CN(C)Cc1ccc(N/C(=C2\C(=O)Nc3ccc([N+](=O)[O-])cc32)c2ccc([N+](=O)[O-])cc2)cc1` belongs 233 °C.
In turn, `CC(C)(C)OC(=O)NCCc1ccc(N/C(=C2\C(=O)Nc3ccc([N+](=O)[O-])cc32)c2ccccc2)cc1` [Example 127, (Z)-3-{1-[4-(2-tert.butoxycarbonylamino-ethyl)-phenylamino]-1-phenyl-methylidene}-5-nitro-2-indolinone] showed a melting point of 213 to 214 °C.
Under `CCS(=O)(=O)N(CCCN(C)C)c1ccc(N/C(=C2\C(=O)Nc3ccccc32)c2ccccc2)cc1` [Example 316, (Z)-3-{1-[4-(N-(3-dimethylaminopropyl)-N-ethylsulphonyl-amino)-phenylamino]-1-phenyl-methylidene}-2-indolinone] stands 194 °C.
Under `O=C1Nc2ccc([N+](=O)[O-])cc2/C1=C(/Nc1ccc(CN2CCCCC2)cc1)c1ccc(Cn2ccnc2)cc1` [Example 439, (Z)-3-{1-[4-piperidinomethyl-phenylamino]-1-[4-(imidazol-1-yl-methyl)-phenyl]-methylidene}-5-nitro-2-indolinone] stands 226 to 228 °C; under `CCOC(=O)CNC(=O)c1cccc(N/C(=C2\C(=O)Nc3ccccc32)c2ccccc2)c1` [Example 23, (Z)-3-[1-(3-ethoxycarbonylmethylaminocarbonyl-phenylamino)-1-phenyl-methylidene]-2-indolinone], 233 to 235 °C.
To `CS(=O)(=O)N(CCN1CCOCC1)c1ccc(N/C(=C2\C(=O)Nc3ccccc32)c2ccccc2)cc1` [Example 189, (Z)-3-{1-[4-(N-(2-morpholinoethyl)-N-methylsulphonyl-amino)-phenylamino]-1-phenyl-methylidene}-2-indolinone] belongs 249 to 250 °C; to `NCc1ccc(/C(Nc2ccccc2)=C2/C(=O)Nc3ccc([N+](=O)[O-])cc32)cc1` [Example 154, (Z)-3-[1-phenylamino-1-(4-aminomethyl-phenyl)-methylidene]-5-nitro-2-indolinone], 332 °C (dec.).
In turn, `Cl.O=C1Nc2ccc([N+](=O)[O-])cc2/C1=C(/Nc1ccc(CNCc2ccccc2)cc1)c1ccccc1` had a melting point of 298 to 300 °C.
To `CCCN(CCC)Cc1ccc(N/C(=C2\C(=O)Nc3ccc([N+](=O)[O-])cc32)c2ccccc2)cc1` [Example 161, (Z)-3-[1-(4-Dipropylaminomethyl-phenylamino)-1-phenyl-methylidene]-5-nitro-2-indolinone] belongs 160 to 162 °C.
To `CN(C)CC(=O)Nc1ccc(N/C(=C2\C(=O)Nc3ccc([N+](=O)[O-])cc32)c2ccccc2)cc1` [Example 94, (Z)-3-[1-(4-dimethylaminomethylcarbonylamino-phenylamino)-1-phenyl-methylidene]-5-nitro-2-indolinone] belongs 254 to 257 °C; to `Nc1ccc(N/C(=C2\C(=O)Nc3ccc([N+](=O)[O-])cc32)c2ccccc2)cc1` [Example 91, (Z)-3-[1-(4-aminophenylamino)-1-phenyl-methylidene]-5-nitro-2-indolinone], 269 °C.
To `CCCCS(=O)(=O)N(CC(=O)N(C)C)c1ccc(N/C(=C2\C(=O)Nc3ccccc32)c2ccccc2)cc1` [Example 306, (Z)-3-{1-[4-(N-(dimethylaminocarbonylmethyl)-N-butylsulphonyl-amino)-phenylamino]-1-phenyl-methylidene}-2-indolinone] belongs 121 to 123 °C; to `CCC(=O)N(CCN(C)C)c1ccc(N/C(=C2\C(=O)Nc3ccc([N+](=O)[O-])cc32)c2ccccc2)cc1` [Example 329, (Z)-3-{1-[4-(N-(2-dimethylaminoethyl)-N-propionyl-amino)-phenylamino]-1-phenyl-methylidene}-5-nitro-2-indolinone], 263 to 265 °C.
On to `CC(C)(C)OC(=O)N(Cc1ccccc1)Cc1ccc(N/C(=C2\C(=O)Nc3ccc([N+](=O)[O-])cc32)c2ccccc2)cc1` [Example 236, (Z)-3-{1-[4-(N-benzyl-N-tert.butoxycarbonyl-aminomethyl)-phenylamino]-1-phenyl-methylidene}-5-nitro-2-indolinone], for which the melting point is 202 to 203 °C (dec.).
In the case of `Cl.NCC(=O)Nc1ccc(N/C(=C2\C(=O)Nc3ccccc32)c2ccccc2)cc1`, the melting point was 289 to 290 °C.
Under `CCN(CC)CC(=O)Nc1ccc(N/C(=C2\C(=O)Nc3ccc([N+](=O)[O-])cc32)c2ccccc2)cc1.Cl` stands 287 to 288 °C; under `CN(C)CCNc1ccc(N/C(=C2\C(=O)Nc3ccccc32)c2ccccc2)cc1` [Example 338, (Z)-3-{1-[4-(2-dimethylamino-ethylamino)-phenylamino]-1-phenyl-methylidene}-2-indolinone], 258 to 260 °C.
